Like-named read-outs stand apart in the source and are kept apart here.
Legend:
[1] = in vivo
NMDAR (NR1A/NR2B) = molecular target: T1, NMDAR (NR1A/NR2B) (Homo sapiens, UniProt Q05586+Q13224); assay: NMDAR (NR1A/NR2B) Human Glutamate Ion Channel Cell Based Antagonist Ca2+ Flux Assay; settings: Hek293 cells expressing NMDAR subunit 1A/2B, FLIPR Tetra; read-out: IC50, antagonist activity on Ca^2+ flux
T1 construct: host or cells: HEK293
Description: Briefly, Hek293 cells stably transfected to express NMDAR subunit 1A/2B were seeded into 384-well microplates and incubated at 37° C. Cells were loaded with dye prior to testing. […] Cells were further incubated for 30-60 minutes at 37° C., and compound activity on calcium flux was measured on a FLIPR Tetra (MDS).

[2] = molecular target: T2, glycine binding to the NMDAR NR1 subunit (Rattus norvegicus, UniProt P35439); assay: NMDAR radiolabeled ligand displacement assay, MDL-105,519; settings: glycine site
T2 construct: tissue Eurofins 232910/233010/234000/SafetyScreen44 Panel

ion channel of the NMDAR = assay: NMDAR radiolabeled ligand displacement assay, MK-801; format: binding, rat; settings: pore channel
[3] = system: glutamate binding to the NMDAR NR2 subunit; assay: NMDAR radiolabeled ligand displacement assay, CGP-39653; parameters: species or system rat; settings: glutamate site
[4] = molecular target: T3, Ifenprodil binding site on the NR2B subunit (Rattus norvegicus, UniProt P35439+Q00960); assay: NMDAR radiolabeled ligand displacement assay, Ifenprodil
T3 construct: tissue Eurofins 232910/233010/234000/SafetyScreen44 Panel; host or cells: rat cerebral cortex

[5] = human, cited from earlier work
[6] = system: NMDA-induced currents / cytosolic Ca^2+ load; settings: Ruiz et al. 2020; cited from earlier work
[7] = solid and solution states; cited from earlier work
sciatic nerve injury = assay: Mouse model of sciatic nerve injury (toe spreading, electromyography, histology); format: in vivo, mice (Swiss CD-1); settings: 1.5 mg/kg once daily per os
Description: 6-week-old Swiss (CD-1) male mice were provided by Janvier Labs and housed in an animal facility in a day/night inversed cycle. […] Mice were anesthetized with ketamine chlorohydrate (100 mg/kg) and xylazine (10 mg/kg) and placed on a heating pad. Skin was incised and the sciatic nerve exposed at mid-thigh level and lesioned with fine forceps to ensure peripheral injury. The nerve was crushed twice with a haemostatic forceps (width 1.5 mm; Koenig, Strasbourg, France) with a 90-degree rotation between each crush. The skin incision was sutured, and mice were allowed to recover isolated until the end of anesthesia. The hind limb, contralateral to the lesion, served as uninjured control. Analgesia was induced prior surgery and the following days with bunepronorphine (0.1 mg/kg). […] The loss of nerve function recovered progressively over a 4-5 weeks period after mechanical insult.
At day 0, on day 7, and on day 14 and day 21 post-surgery, the functionality of the nerve fibers was determined with an electromyography apparatus (Dantec, Natus, France), on the ipsilateral side and contralateral side. […] The compound muscle action potential (CMAP) was measured: more precisely the amplitude (mV) and the latency (ms) of the action potential were recorded in gastrocnemius muscle after stimulation of the sciatic nerve. […]

T1 sequence (Q13224 27-1484, other chains not shown): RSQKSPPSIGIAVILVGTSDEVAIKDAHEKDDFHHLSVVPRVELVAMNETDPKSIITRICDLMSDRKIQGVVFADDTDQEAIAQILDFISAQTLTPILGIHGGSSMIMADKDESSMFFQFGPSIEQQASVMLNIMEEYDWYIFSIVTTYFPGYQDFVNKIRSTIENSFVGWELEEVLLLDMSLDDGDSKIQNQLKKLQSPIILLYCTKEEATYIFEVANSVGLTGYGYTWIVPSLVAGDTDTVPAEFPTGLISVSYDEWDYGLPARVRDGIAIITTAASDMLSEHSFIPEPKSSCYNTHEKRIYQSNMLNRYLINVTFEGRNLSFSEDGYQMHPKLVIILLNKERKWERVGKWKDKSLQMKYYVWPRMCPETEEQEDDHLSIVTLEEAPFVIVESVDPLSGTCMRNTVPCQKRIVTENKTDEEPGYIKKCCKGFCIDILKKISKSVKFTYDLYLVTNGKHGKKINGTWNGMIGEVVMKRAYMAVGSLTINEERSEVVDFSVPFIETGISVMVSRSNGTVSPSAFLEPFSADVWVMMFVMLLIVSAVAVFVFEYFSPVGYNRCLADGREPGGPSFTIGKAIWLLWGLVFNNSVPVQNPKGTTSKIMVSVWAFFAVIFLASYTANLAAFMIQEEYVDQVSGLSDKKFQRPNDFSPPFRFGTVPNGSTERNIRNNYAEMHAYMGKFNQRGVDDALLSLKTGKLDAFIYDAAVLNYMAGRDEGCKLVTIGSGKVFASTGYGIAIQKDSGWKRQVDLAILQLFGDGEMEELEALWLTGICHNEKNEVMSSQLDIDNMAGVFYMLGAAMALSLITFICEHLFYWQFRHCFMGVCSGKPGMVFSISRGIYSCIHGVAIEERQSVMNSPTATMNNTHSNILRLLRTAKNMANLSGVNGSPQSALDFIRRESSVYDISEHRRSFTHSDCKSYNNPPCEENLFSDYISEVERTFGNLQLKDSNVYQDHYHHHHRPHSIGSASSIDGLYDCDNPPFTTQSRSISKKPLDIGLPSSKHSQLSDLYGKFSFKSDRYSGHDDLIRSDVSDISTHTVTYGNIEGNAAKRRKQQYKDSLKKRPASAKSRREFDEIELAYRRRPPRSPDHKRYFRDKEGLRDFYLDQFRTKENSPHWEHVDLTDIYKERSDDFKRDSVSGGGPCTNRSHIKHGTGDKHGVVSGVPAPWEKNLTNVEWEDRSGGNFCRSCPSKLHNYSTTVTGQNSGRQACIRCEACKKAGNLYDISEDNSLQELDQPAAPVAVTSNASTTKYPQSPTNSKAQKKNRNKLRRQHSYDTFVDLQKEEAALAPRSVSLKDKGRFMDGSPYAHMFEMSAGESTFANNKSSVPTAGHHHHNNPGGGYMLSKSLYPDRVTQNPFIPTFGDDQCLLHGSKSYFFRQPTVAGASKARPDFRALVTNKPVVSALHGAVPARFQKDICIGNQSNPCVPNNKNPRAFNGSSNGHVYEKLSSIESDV
T3 sequence (Q00960 27-1482, other chains not shown): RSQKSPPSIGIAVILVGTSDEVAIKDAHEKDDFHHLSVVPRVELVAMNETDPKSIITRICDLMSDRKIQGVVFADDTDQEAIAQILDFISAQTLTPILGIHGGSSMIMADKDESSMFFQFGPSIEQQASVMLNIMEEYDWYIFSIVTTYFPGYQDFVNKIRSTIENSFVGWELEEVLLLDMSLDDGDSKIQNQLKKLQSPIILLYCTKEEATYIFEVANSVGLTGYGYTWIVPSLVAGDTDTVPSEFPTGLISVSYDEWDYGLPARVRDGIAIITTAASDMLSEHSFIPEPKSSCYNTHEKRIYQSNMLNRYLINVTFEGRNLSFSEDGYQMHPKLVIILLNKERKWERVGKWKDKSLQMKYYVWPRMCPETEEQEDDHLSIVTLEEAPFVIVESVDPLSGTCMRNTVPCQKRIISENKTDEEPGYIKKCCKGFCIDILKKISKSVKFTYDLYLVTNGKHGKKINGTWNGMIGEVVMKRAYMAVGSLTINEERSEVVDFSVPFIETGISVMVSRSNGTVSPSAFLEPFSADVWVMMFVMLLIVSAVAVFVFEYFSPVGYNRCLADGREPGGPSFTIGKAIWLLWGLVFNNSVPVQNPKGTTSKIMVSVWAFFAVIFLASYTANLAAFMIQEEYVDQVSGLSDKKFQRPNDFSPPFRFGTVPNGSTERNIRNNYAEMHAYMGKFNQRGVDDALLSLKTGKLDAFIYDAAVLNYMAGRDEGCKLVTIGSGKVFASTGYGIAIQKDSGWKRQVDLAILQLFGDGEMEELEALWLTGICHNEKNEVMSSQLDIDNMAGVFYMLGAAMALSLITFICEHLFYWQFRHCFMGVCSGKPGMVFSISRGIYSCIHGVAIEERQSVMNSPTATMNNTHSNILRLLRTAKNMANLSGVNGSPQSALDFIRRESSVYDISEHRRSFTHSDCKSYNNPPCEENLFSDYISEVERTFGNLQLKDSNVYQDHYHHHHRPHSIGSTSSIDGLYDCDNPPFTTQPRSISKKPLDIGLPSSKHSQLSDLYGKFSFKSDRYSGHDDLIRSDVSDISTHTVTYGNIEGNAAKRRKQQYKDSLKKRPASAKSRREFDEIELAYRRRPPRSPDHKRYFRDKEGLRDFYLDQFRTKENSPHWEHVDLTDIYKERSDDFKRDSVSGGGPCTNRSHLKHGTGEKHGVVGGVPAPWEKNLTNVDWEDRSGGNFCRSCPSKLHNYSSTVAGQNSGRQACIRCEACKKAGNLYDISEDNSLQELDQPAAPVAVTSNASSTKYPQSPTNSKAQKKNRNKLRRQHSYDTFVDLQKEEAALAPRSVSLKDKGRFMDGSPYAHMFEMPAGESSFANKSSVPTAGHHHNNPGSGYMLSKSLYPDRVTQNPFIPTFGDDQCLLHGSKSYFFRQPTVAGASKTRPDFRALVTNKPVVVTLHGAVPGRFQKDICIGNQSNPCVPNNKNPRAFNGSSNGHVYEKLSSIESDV

N=C(N)N/N=C/c1ccc(O)cc1Cl [Compound 19, 2-(2-chloro-4-hydroxybenzylidene)hydrazine-carboximidamide]
adverse events resembling those present in schizophrenia ([1]; human): None of the adverse events seen with compound 2 and 19 resembled those present in schizophrenia
compound-related hypotension and dizziness ([1]; human): No clinically significant compound 2 and 19-related hypotension, and dizziness
metabolite status in human [1]: major human metabolite of compound 2

CC(=O)O.N=C(N)N/N=C/c1c(Cl)cccc1Cl [Compound 1, 2-(2,6-dichlorobenzylidene)hydrazine-carboximidamide acetate salt]
IC50 (NMDAR (NR1A/NR2B)): 625 nM
displacement of radiolabeled ligand MDL-105,519 [2]: unable to displace
displacement of radiolabeled ligand MK-801 (ion channel of the NMDAR): unable to displace
displacement of radiolabeled ligand CGP-39653 [3]: unable to displace
IC50 [4]: 400 nM
adverse events resembling those present in schizophrenia ([5]; controlled and open therapeutic trials): none of the adverse events seen with compound 1 (i.e. guanabenz) resembled those present in schizophrenia
cardiovascular side effects [5]: rare, apart from a decrease in heart rate
reported side effects [5]: drowsiness, dry mouth, dizziness and weakness
NMDA-induced currents [6]: reducing
NMDA-induced cytosolic Ca^2+ load [6]: reducing
spontaneous isomerization (E/Z) [7]: practically insignificant

N=C(N)N/N=C/c1ccc(F)cc1Cl [Compound 3, 2-(2-chloro-4-fluoro-benzylidene)hydrazine-carboximidamide]
IC50 (NMDAR (NR1A/NR2B)): 702 nM
displacement of radiolabeled ligand MDL-105,519 [2]: unable to displace
displacement of radiolabeled ligand MK-801 (ion channel of the NMDAR): unable to displace
displacement of radiolabeled ligand CGP-39653 [3]: unable to displace
IC50 [4]: 250 nM
recovery of toe spreading compared to control group (sciatic nerve injury): faster
recovery of toe spreading, median time (printed median survival) (sciatic nerve injury; ipsilateral paw, vehicle usually after 10 days): 8 days

C[C@]12N[C@H](Cc3ccccc31)c1ccccc12 [MK-801]
IC50 (NMDAR (NR1A/NR2B)): 69 nM
